From patent US20080318925A1 (ASTRAZENECA AB, priority 2007, published 2008)
pKi: −log10 of the molar value.

Molecular target: T1, GABAA2 receptors (α2, β3, γ3 receptor subunits transfected into Sf9 cells) (Homo sapiens, UniProt P47869+Q99928)
T1 construct: host or cells: Sf9 cells (membranes)
T1 sequence (P47869 29-451): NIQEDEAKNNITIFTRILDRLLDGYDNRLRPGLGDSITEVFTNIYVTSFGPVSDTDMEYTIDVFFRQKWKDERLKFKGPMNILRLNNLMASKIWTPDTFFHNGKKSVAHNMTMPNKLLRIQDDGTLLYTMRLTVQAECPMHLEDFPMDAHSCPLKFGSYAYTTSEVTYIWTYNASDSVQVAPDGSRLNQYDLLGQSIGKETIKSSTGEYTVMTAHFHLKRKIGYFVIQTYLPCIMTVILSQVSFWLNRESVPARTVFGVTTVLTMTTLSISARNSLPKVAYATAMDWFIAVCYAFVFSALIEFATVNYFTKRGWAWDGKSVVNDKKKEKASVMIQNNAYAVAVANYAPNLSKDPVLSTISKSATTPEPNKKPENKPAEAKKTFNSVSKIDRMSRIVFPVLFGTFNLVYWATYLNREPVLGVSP
T1 sequence (P28472 26-473 partner): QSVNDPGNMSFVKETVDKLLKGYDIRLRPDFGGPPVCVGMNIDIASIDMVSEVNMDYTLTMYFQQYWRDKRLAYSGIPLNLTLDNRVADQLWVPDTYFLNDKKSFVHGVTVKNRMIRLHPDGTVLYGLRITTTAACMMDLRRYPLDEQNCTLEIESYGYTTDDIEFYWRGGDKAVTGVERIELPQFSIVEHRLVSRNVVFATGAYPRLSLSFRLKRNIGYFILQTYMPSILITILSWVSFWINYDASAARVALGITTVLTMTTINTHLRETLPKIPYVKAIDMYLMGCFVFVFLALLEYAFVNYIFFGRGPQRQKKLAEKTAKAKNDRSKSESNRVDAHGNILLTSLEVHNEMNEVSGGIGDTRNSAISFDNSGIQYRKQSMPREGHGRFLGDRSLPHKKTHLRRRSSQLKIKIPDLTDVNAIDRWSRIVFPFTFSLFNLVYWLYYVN
T1 sequence (Q99928 18-467): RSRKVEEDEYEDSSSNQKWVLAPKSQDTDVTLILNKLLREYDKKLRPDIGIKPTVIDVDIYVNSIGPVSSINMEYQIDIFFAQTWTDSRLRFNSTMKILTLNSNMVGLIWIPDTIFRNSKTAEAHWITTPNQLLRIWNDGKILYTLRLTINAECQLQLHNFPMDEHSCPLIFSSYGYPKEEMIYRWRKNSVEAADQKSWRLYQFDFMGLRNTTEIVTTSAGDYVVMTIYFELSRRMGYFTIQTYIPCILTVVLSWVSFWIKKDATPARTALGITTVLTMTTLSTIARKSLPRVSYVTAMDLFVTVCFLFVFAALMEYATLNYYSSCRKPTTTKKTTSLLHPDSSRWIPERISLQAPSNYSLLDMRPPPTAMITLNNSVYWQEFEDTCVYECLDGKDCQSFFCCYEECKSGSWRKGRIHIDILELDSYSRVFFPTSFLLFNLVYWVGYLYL
Test: GABAA2 binding method ([3H]-flunitrazepam displacement)
Conditions: [3H]-flunitrazepam ~2 nM, Sf9 membranes, 1 hr at 4° C.
Protocol: In some embodiments, the binding test was directed to a subtype of GABAA receptors, such as GABAA1 receptors (i.e., those containing the α1 subunit), GABAA2 receptors (i.e., those containing the α2 subunit), GABAA3 receptors (i.e., those containing the α3 subunit) and GABAA5 receptors (i.e., those containing the α5 subunit).
• Assay and Wash Buffer: 50 mM Tris-Citrate, 200 mM NaCl, pH 7.8 Compounds at 10 mM in DMSO: Put 75 μl in column 1 of compound plate.
Flumazenil, 10 mM (for NSB)
[^3H]-Flunitrazepam (Cat #NET567): Prepare 10× stock=20 nM, [F} in assay=˜2 nM
1. […] Add 5 ul of 30 uM flumazenil to wells 12 D-E for 50% control wells.
2. Spot 2 μl of compound dilutions into dry plate (Automation Program 3). Manually spot 2 μl 10 mM flumazenil into wells 12 F-H for nonspecific control.
3. Make 1:100 dilution in assay buffer (2 μl into 200 μl) and dispense 25 μl compound into assay plates (Automation Program 4).
4. Dispense 200 μl membranes into assay plate (Automation Program 5).
5. Add 25 μl [^3H]-Flunitrazepam (Automation Program 6). Incubate for 1 hr at 4° C.
6. Collect membranes on a cell harvester onto GF/B filter plates (pre-wet with dH2O and wash 5× 400 μl/well, with cold assay buffer. (First 3 washes are considered hot; last two are cold.)
7. Dry plates for 2-3 hours at RT.
8. Add 40 μl Microscint 40/well (Automation Program 7); seal plates. Count on a TopCount.
Data is analyzed by calculating percent of control, IC50, and Ki in an XLfit template. The following formula is used in the templates: […]

Structure (SMILES)	pKi
CCCNC(=O)c1nnc2c(-c3cc(Cl)ccc3OC)c(F)ccc2c1N	9.49
CCCNC(=O)c1nnc2c(-c3c(F)cccc3OC)c(F)ccc2c1N	9.47
CCCNC(=O)c1nnc2c(-c3ccccc3C(F)(F)F)cccc2c1N	9.44
CCCNC(=O)c1nnc2c(-c3cc(OC)cc(OC)c3)c(F)ccc2c1N	9.26
CCCNC(=O)c1nnc2c(-c3cncc(C(=O)N4CCC4)c3)cccc2c1N	8.63
CCCNC(=O)c1nnc2c(-c3ccc(OC)cc3C(F)(F)F)cccc2c1N	8.62
CCCNC(=O)c1nnc2c(-c3ccc(OC)cc3OC)cccc2c1N	8.60
CCCNC(=O)c1nnc2c(-c3cccnc3)cccc2c1N	8.59
CCCNC(=O)c1nnc2c(-c3ccc(OC)cc3OC)c(C#N)ccc2c1N	8.57
CCCNC(=O)c1nnc2c(-c3cnc(OC)nc3OC)c(Cl)ccc2c1N	8.56
CCCNC(=O)c1nnc2c(-c3ccc(OC)c(F)c3)c(F)ccc2c1N	8.54
CCCNC(=O)c1nnc2c(-c3cc(C)ccc3OC)c(Cl)ccc2c1N	8.54
CCCNC(=O)c1nnc2c(-c3cccc(OC)c3F)cccc2c1N	8.47
CCCNC(=O)c1nnc2c(-c3cccc(C(=O)N4CCC4)c3)cccc2c1N	8.46
CCCNC(=O)c1nnc2c(-c3ccc(OC)c(OC)c3)cccc2c1N	8.41
CCCNC(=O)c1nnc2c(-c3ccc(C)nc3)cccc2c1N	8.39
CCCNC(=O)c1nnc2c(-c3ccc(OC)cc3F)cccc2c1N	8.38
CCCNC(=O)c1nnc2c(-c3cncc(OC)c3)cccc2c1N	8.38
CCCNC(=O)c1nnc2c(-c3cccc(OC)c3)cccc2c1N	8.36
CCCNC(=O)c1nnc2c(-c3ccc(F)cc3OC)cccc2c1N	8.36
CCNC(=O)c1nnc2c(-c3cnccc3OC)cccc2c1N	8.36
CCCNC(=O)c1nnc2c(-c3cc(OC)cc(OC)c3)cccc2c1N	8.30
CCCNC(=O)c1nnc2c(-c3cc(F)ccc3C)cccc2c1N	8.25
CCCNC(=O)c1nnc2c(-c3ccc(OC)cc3OC)c(Cl)ccc2c1N	8.24

Structure (SMILES)	pKi
CCCNC(=O)c1nnc2c(-c3cc(F)cc(F)c3OC)c(F)ccc2c1N	8.24
CCCNC(=O)c1nnc2c(-c3ccccc3)c(Cl)ccc2c1N	8.24
CCCNC(=O)c1nnc2c(-c3ccc(OC)c(OC)c3OC)cccc2c1N	8.17
CCCNC(=O)c1nnc2c(-c3nc(Br)ccc3OC)cccc2c1N	8.12
CCCNC(=O)c1nnc2c(-c3ccc(Cl)cc3)c(F)ccc2c1N	8.06
CCCNC(=O)c1nnc2c(-c3ccc(F)cc3)cccc2c1N	8.02
CCCNC(=O)c1nnc2c(-c3cccc(S(C)(=O)=O)c3)cccc2c1N	7.98
CCCNC(=O)c1nnc2c(-c3cc(F)ccc3OC)cccc2c1N	7.98
CCNC(=O)c1nnc2c(-c3cc(C)ccc3OC)cccc2c1N	7.98
CCCNC(=O)c1nnc2c(-c3cccc(F)c3OC)cccc2c1N	7.96
CCCNC(=O)c1nnc2c(-c3cc(C)ccc3C)c(Cl)ccc2c1N	7.95
CCCNC(=O)c1nnc2c(-c3cccc(Cl)c3)cccc2c1N	7.91
CCCNC(=O)c1nnc2c(-c3cnc4ccccc4c3)cccc2c1N	7.91
CCCCNC(=O)c1nnc2c(-c3cc(C)ccc3OC)cccc2c1N	7.88
CCCNC(=O)c1nnc2c(-c3cc(OC)ccc3OC)c(Cl)ccc2c1N	7.86
CCNC(=O)c1nnc2c(-c3cnc(OC)nc3OC)cccc2c1N	7.84
COc1ccc(C)cc1-c1cccc2c(N)c(C(=O)NC3CC3)nnc12	7.82
CCCNC(=O)c1nnc2c(-c3ccc(OC)cc3)cccc2c1N	7.81
CCCNC(=O)c1nnc2c(-c3cc(Cl)cc(Cl)c3)c(F)ccc2c1N	7.79
CCCNC(=O)c1nnc2c(-c3ccc(C)c(C)c3)cccc2c1N	7.77
CCCNC(=O)c1nnc2c(-c3ccc(OC)c(C)c3)cccc2c1N	7.75
CCCNC(=O)c1nnc2c(-c3cc(C(=O)N4CCC4)ccc3OC)cccc2c1N	7.74
CCCNC(=O)c1nnc2c(-c3ccsc3)cccc2c1N	7.73
